Assay results taken from US11897904B2, “Herbicidally active bicyclic benzamides” (Bayer Aktiengesellschaft, priority 2017, dated 2024).

How the values were obtained:
CYPES = test: Pre-emergence herbicidal action; format: in vivo, Cyperus esculentus; conditions: dosage 320 g/ha, scored visually after about 3 weeks vs untreated controls, 100% = plants have died, 0% = like control plants
Source text: (§1) 1. Pre-Emergence Herbicidal Action and Crop Plant Compatibility
(§2) Seeds of monocotyledonous and dicotyledonous weed plants and crop plants are placed in plastic or organic planting pots and covered with soil. The compounds of the invention, formulated in the form of wettable powders (WP) or as emulsion concentrates (EC), are then applied onto the surface of the covering soil as aqueous suspension or emulsion with addition of 0.5% additive at a water application rate of 600 l/ha (converted). After the treatment, the pots are placed in a greenhouse and kept under good growth conditions for the trial plants. After about 3 weeks, the effect of the preparations is scored visually in comparison with untreated controls as percentages. The tables below show the herbicidal activity of numerous compounds according to the invention against important harmful plants. For example, 100% activity=the plants have died, 0% activity=like control plants.

VERPE [1] = test: Post-emergence herbicidal action; format: in vivo, Veronica persica; conditions: 80 g/ha, rated visually after about 3 weeks vs untreated controls
Method: (§3) 2. Post-Emergence Herbicidal Action and Crop Plant Compatibility
(§4) Seeds of monocotyledonous and dicotyledonous weeds and crop plants are placed in sandy loam in plastic or organic planting pots, covered with soil and cultivated in a greenhouse under controlled growth conditions. 2 to 3 weeks after sowing, the test plants are treated at the one-leaf stage. The compounds of the invention, formulated in the form of wettable powders (WP) or as emulsion concentrates (EC), are then sprayed onto the green parts of the plants as aqueous suspension or emulsion with addition of 0.5% additive at a water application rate of […] (converted). After the test plants had been kept in the greenhouse under optimum growth conditions for about 3 weeks, the activity of the preparations is rated visually in comparison to untreated controls. The tables below show the herbicidal activity of numerous compounds according to the invention against important harmful plants. For example, 100% activity=the plants have died, 0% activity=like control plants.

VIOTR [2] = test: Pre-emergence herbicidal action; format: in vivo, Viola tricolor; conditions: 320 g/ha, scored visually after about 3 weeks vs untreated controls
Source text: as §1, §2

VIOTR [3] = test: Post-emergence herbicidal action; format: in vivo, Viola tricolor; conditions: 80 g/ha, rated visually after about 3 weeks vs untreated controls
Method: as §3, §4

MATIN [4] = test: Pre-emergence herbicidal action; format: in vivo, Matricaria inodora; conditions: pre-emergence, 320 g/ha, scored visually after about 3 weeks vs untreated controls
Source text: as §1, §2

ECHCG [5] = test: Pre-emergence herbicidal action; format: in vivo, Echinochloa crus-galli; conditions: 320 g/ha, scored visually after about 3 weeks vs untreated controls
Source text: as §1, §2

PHBPU = test: Post-emergence herbicidal action; format: in vivo, Ipomoea purpurea; conditions: 80 g/ha, rated visually after about 3 weeks vs untreated controls
Method: as §3, §4

ABUTH [6] = test: Pre-emergence herbicidal action; format: in vivo, Abutilon theophrasti; conditions: pre-emergence, 320 g/ha, scored visually after about 3 weeks vs untreated controls
Source text: as §1, §2

AMARE [7] = test: Pre-emergence herbicidal action; format: in vivo, Amaranthus retroflexus; conditions: 320 g/ha, scored visually after about 3 weeks vs untreated controls
Source text: as §1, §2

AMARE [8] = test: Post-emergence herbicidal action; format: in vivo, Amaranthus retroflexus; conditions: 80 g/ha, rated visually after about 3 weeks vs untreated controls
Method: as §3, §4

MATIN [9] = test: Post-emergence herbicidal action; format: in vivo, Matricaria inodora; conditions: 80 g/ha, rated visually after about 3 weeks vs untreated controls
Method: as §3, §4

ECHCG [10] = test: Post-emergence herbicidal action; format: in vivo, Echinochloa crus-galli; conditions: 80 g/ha, rated visually after about 3 weeks vs untreated controls
Method: as §3, §4

VERPE [11] = test: Pre-emergence herbicidal action; format: in vivo, Veronica persica; conditions: 320 g/ha, scored visually after about 3 weeks vs untreated controls
Source text: as §1, §2

STEME [12] = test: Pre-emergence herbicidal action; format: in vivo, Stellaria media; conditions: 320 g/ha, scored visually after about 3 weeks vs untreated controls
Source text: as §1, §2

STEME [13] = test: Post-emergence herbicidal action; format: in vivo, Stellaria media; conditions: 80 g/ha, rated visually after about 3 weeks vs untreated controls
Method: as §3, §4

SETVI [14] = test: Pre-emergence herbicidal action; format: in vivo, Setaria viridis; conditions: pre-emergence, 320 g/ha, scored visually after about 3 weeks vs untreated controls
Source text: as §1, §2

SETVI [15] = test: Post-emergence herbicidal action; format: in vivo, Setaria viridis; conditions: 80 g/ha, rated visually after about 3 weeks vs untreated controls
Method: as §3, §4

ABUTH [16] = test: Post-emergence herbicidal action; format: in vivo, Abutilon theophrasti; conditions: post-emergence, 80 g/ha, rated visually after about 3 weeks vs untreated controls
Method: as §3, §4

| Structure (SMILES) | herbicidal activity CYPES (CYPES) [%] | herbicidal activity VERPE (VERPE [1]) [%] | herbicidal activity VIOTR (VIOTR [2]) [%] | herbicidal activity VIOTR (VIOTR [3]) [%] | herbicidal activity MATIN (MATIN [4]) [%] | herbicidal activity ECHCG (ECHCG [5]) [%] | herbicidal activity PHBPU (PHBPU) [%] | herbicidal activity ABUTH (ABUTH [6]) [%] | herbicidal activity AMARE (AMARE [7]) [%] | herbicidal activity AMARE (AMARE [8]) [%] | herbicidal activity MATIN (MATIN [9]) [%] | herbicidal activity ECHCG (ECHCG [10]) [%] | herbicidal activity VERPE (VERPE [11]) [%] | herbicidal activity STEME (STEME [12]) [%] | herbicidal activity STEME (STEME [13]) [%] | herbicidal activity SETVI (SETVI [14]) [%] | herbicidal activity SETVI (SETVI [15]) [%] | herbicidal activity ABUTH (ABUTH [16]) [%] |
| --- | --- | --- | --- | --- | --- | --- | --- | --- | --- | --- | --- | --- | --- | --- | --- | --- | --- | --- |
| CCn1nnnc1NC(=O)c1ccc(C(F)(F)F)c2c1OCS2(=O)=O [Example 3-82] | 90 | 100 | 100 | 100 | 100 | 100 | 90 | 90 | 100 | 100 | 100 | 80 | 100 | 100 | 100 | – | – | – |
| Cn1nnnc1NC(=O)c1ccc(C(F)F)c2c1OC[S+]2[O-] (stereo not shown) [Example 2-69] | – | 90 | 100 | 100 | 90 | 90 | 80 | 100 | 100 | 90 | 90 | 100 | 90 | 90 | 100 | 90 | 80 | 90 |
| CC1Oc2c(C(=O)Nc3nnnn3C)ccc(C(F)(F)F)c2S1 (stereo not shown) [Example 2-94, 2-methyl-4-(trifluoromethyl)-1,3-benzoxathiolane-N-(1-methyltetrazol-5-yl)-7-carboxamide] | – | – | 100 | 80 | – | – | – | 90 | 100 | 90 | – | 80 | – | 100 | 100 | 100 | 80 | 90 |
| CCn1nnnc1NC(=O)c1ccc(C(F)(F)F)c2c1OC[S+]2[O-] (stereo not shown) [Example 3-67] | 80 | 100 | 100 | 100 | 90 | 100 | 100 | 90 | 100 | 100 | 90 | 100 | 100 | 100 | 100 | 80 | – | 80 |
| Cn1nnnc1NC(=O)c1ccc(C(F)F)c2c1OCS2(=O)=O [Example 2-84] | – | 100 | 100 | 100 | 100 | – | 90 | 90 | 100 | 100 | 100 | 90 | 100 | 90 | 100 | 90 | 100 | 90 |
| Cc1ccc(C(=O)Nc2nnnn2C)c2c1S(=O)(=O)CO2 [Example 2-80] | – | – | – | 90 | 80 | – | – | – | 90 | 90 | 80 | – | – | – | 90 | – | – | – |
| Cc1ccc(C(=O)Nc2nnnn2C)c2c1[S+]([O-])CO2 (stereo not shown) [Example 2-65] | 90 | – | – | – | – | – | – | – | 90 | – | – | – | 80 | – | – | – | – | – |
| Cn1nnnc1NC(=O)c1ccc(C(F)(F)F)c2c1OC[S+]2[O-] (stereo not shown) [Example 2-68, 4-(trifluoromethyl)-1,3-benzoxathiolane-N-(1-methyltetrazol-5-yl)-7-carboxamide 3-oxide] | 90 | 100 | 100 | 100 | 90 | 90 | 90 | 90 | 100 | 100 | 90 | 100 | 100 | 90 | 100 | 100 | 90 | – |
| Cn1nnnc1NC(=O)c1ccc(C(F)(F)F)c2c1OCS2(=O)=O [Example 2-83] | 100 | 90 | 100 | 100 | 90 | 100 | 90 | 100 | 100 | 100 | 100 | 90 | 100 | 100 | 100 | 100 | 90 | 90 |
| CCn1nnnc1NC(=O)c1ccc(C(F)(F)F)c2c1OCS2 [Example 3-52] | – | 100 | 90 | 100 | 90 | 90 | 100 | 90 | 100 | 100 | 90 | 100 | 80 | 100 | 100 | 90 | 100 | 80 |
| CCn1nnnc1NC(=O)c1ccc(C(F)F)c2c1OCS2 [Example 3-53] | – | 80 | 100 | 90 | – | – | – | – | 90 | 100 | 80 | 80 | – | – | 90 | – | 80 | 90 |
| CC1Oc2c(C(=O)Nc3nnnn3C)ccc(C(F)(F)F)c2S1(=O)=O (stereo not shown) [Example 2-106] | 90 | – | 100 | 100 | 100 | 90 | 80 | 100 | 100 | 100 | 90 | 100 | – | 90 | 100 | 90 | 100 | 90 |
